Test results published in US20250268857A1 (priority 2020, published 2025).
Several values for one entry are separate records, joined by “and”; a condition that tells them apart may be missing. Equal entries are not always repeated. Where two headings read alike, the source gives them in different places.

Legend:
[1] = system: feline coronavirus (Feline Enteric Coronavirus, WSU 79-1683); assay: Coronavirus inactivation test (titration on Felis catus whole fetus cells); assay type: cell-based; details: 7500 ppm aqueous solution of zinc gluconate; in 30 minutes
Experimental: First, 0.9 ml of 7500 ppm of aqueous solution of zinc gluconate (phosphate buffered saline (PBS) was used for comparison) used as a sample solution and 0.1 ml of feline coronavirus solution (Feline Enteric Coronavirus, WSU 79-1683, 1.3× 10^5 EID50/0.1 ml) were mixed in a vortex mixer and reacted at room temperature (20° C.) for 30 minutes. The mixture solution of the sample and the virus was diluted to 100 times with a 5-times diluted Soybean-Casein Digest Broth with Lecithin & Polysorbate 80 (SCDLP) to stop the reaction and obtain a sample for measuring virus infection values.
Felis catus whole fetus cells used for testing were pre-seeded in 96-well plates and cultured in a CO2 incubator for 4 days. After this, the culture supernatant was removed and replaced with Dulbecco's Modified Eagle's medium containing 1% fetal bovine serum (available from Nissui Pharmaceutical Co., Ltd.).
The wells from which the culture medium had been removed were inoculated with 25 μl of the above sample for measuring virus infection values or with a 10-fold dilution of this in PBS, and the virus was allowed to infect the cells at 37° C. for 1 hour. […] After incubation, the cytopathic effect caused by virus growth was observed under a microscope, and the virus infection titer was calculated by the Reed and Muench method.

feline caliciviruses = assay type: cell-based, feline calicivirus
[2] = system: influenza A virus (Kumamoto/Y5/67 (H2/N2)); design: species or system guinea pigs; details: guinea pig, in vivo
[3] = system: avian influenza virus (A/whistling swan/Shimane/499/83 (H5N3)); assay type: cell-based; details: reacted 10 minutes at room temperature (20° C.), sterile distilled water control 7.75
[4] = system: human influenza viruses and avian influenza viruses with different anti-HN types (H1N1, H1N1 subtype, and H7N7); assay type: cell-based, influenza virus; details: zinc gluconate concentration of 7,500 ppm
[5] = assay type: physicochemical; details: samples with 2,000 to 30,000 ppm zinc gluconate
Text: Zinc oxide nanoparticles having a diameter of 50 to 70 nm were dispersed and stirred into an aqueous solution at room temperature while the solution temperature was prevented from exceeding room temperature. The aqueous solution contained 50% of organic acid (gluconic acid in the embodiment) that partially lactonizes when dissolved in water.

zinc gluconate
titer reduced to (fraction) [1]: 1/100
reduction in infectivity titer (feline caliciviruses): 94%
Infection rate [2]: 4/10 and 1/10 and 3/10
Virus Infectivity Titer ([3]; zinc gluconate 2,000 ppm): 6.25 log EID50/0.1 ml
Virus Infectivity Titer ([3]; zinc gluconate 3,750 ppm): 4.5 log EID50/0.1 ml
Virus Infectivity Titer ([3]; zinc gluconate 5,000 ppm): 3.5 log EID50/0.1 ml
Virus Infectivity Titer ([3]; zinc gluconate 7,500 ppm): 2.25 log EID50/0.1 ml
Virus Infectivity Titer ([3]; zinc gluconate 10,000 ppm): 2.5 log EID50/0.1 ml
Virus Infectivity Titer ([3]; zinc gluconate 30,000 ppm): 5.75 log EID50/0.1 ml
reduction in infectivity titer [4]: same reduction in infectivity titer
pH [5]: 3.6
